Among the data in patent US7250521B2, “Method for production of Δ1-pyrrolines” (Bayer CropScience Aktiengesellschaft, priority 2001, dated 2007) are chromatographic logP and logP values, retold here.

The nature of the data set: logP determination by HPLC on reverse-phase column (C 18), EEC directive 79/831 Annex V.A8. The class given is physicochemical. As for the experimental part: In the acidic range, the determination is carried out at pH 2.3 using the mobile phases 0.1% aqueous phosphoric acid and acetonitrile; linear gradient from 10% acetonitrile to 90% acetonitrile.
In the neutral range, the determination is carried out at pH 7.5 using the mobile phases 0.01 molar aqueous phosphate buffer solution and acetonitrile; linear gradient from 10% acetonitrile to 90% acetonitrile.

Setting [1] is: reverse-phase HPLC column (C 18), pH 2.3, acidic range, pH 2.3; 0.1% aqueous phosphoric acid/acetonitrile gradient; 43° C.; values marked a).
[2] abbreviates: reverse-phase HPLC column (C 18), pH 7.5, neutral range, pH 7.5; 0.01 molar aqueous phosphate buffer/acetonitrile gradient; 43° C.; values marked b).

One may read the chromatographic logP as lipophilicity estimated from chromatographic retention. A low value points to lower lipophilicity.

SMILES strings stand for the structures.

`Cc1ccccc1C1=NC(c2ccc(Cl)cc2C)CC1` (stereo not shown) [Example 30] displayed a chromatographic logP under setting [1] of 2.06 and a chromatographic logP under setting [2] of 4.79. With `Cc1ccccc1C1=NC(c2ccc(F)cc2)CC1` (stereo not shown) [Example 31], the chromatographic logP under setting [1] came to 1.41. For `Fc1ccc(C2CCC(c3ccccc3)=N2)cc1` (stereo not shown) [Example 32], the chromatographic logP runs as follows: under setting [1], 1.12; under setting [2], 3.34. For `Fc1ccc(C2CCC(c3cccc(Cl)c3)=N2)cc1` (stereo not shown) [Example 33] the same measures were 1.98 and 4.05.

The compound `Fc1ccc(C2CCC(c3ccc(Cl)cc3)=N2)cc1` (stereo not shown) [Example 34] came in with a chromatographic logP under setting [1] of 1.63 and a chromatographic logP under setting [2] of 3.99. Compound `CC(C)Sc1ccc(C2CCC(c3c(F)cccc3F)=N2)cc1` (stereo not shown) [Example 36] came in with a chromatographic logP under setting [1] of 2.18.

With `Fc1ccc(C2CCC(c3c(Cl)cccc3Cl)=N2)cc1` (stereo not shown) [Example 37], the chromatographic logP came to 3.78 under setting [1] and 3.95 under setting [2]. For `Cc1ccc(C2CCC(c3ccccc3Cl)=N2)c(Cl)c1` (stereo not shown) [Example 38] the same measures were 3.52 and 4.86. On to `Cc1cc(Cl)ccc1C1CCC(c2ccccc2F)=N1` (stereo not shown) [Example 39], for which the chromatographic logP amounted to 2.09 under setting [1] and 4.51 under setting [2]. For `COc1ccc(C2CCC(c3ccccc3Cl)=N2)cc1F` (stereo not shown) [Example 40] the same measures were 1.97 and 3.52. In turn, `FC(F)(F)Oc1ccc(C2CCC(c3ccccc3Cl)=N2)cc1` (stereo not shown) [Example 41] had a chromatographic logP under setting [2] of 4.5.

Consider `COc1ccc(C2CCC(c3ccccc3Br)=N2)cc1` (stereo not shown) [Example 42], for which the chromatographic logP runs as follows: under setting [1], 1.79; under setting [2], 3.5. Turning to `COc1ccc(C2CCC(c3ccccc3Br)=N2)cc1F` (stereo not shown) [Example 43], the chromatographic logP under setting [1] was 2.22. Turning to `Clc1ccc(C2=NC(c3ccccc3)CC2)cc1Cl` (stereo not shown) [Example 44], the chromatographic logP under setting [1] was 2.68 and the chromatographic logP under setting [2] was determined as 4.59.

In the case of `Clc1ccc(C2CCC(c3ccccc3Cl)=N2)cc1Cl` (stereo not shown) [Example 45], the chromatographic logP is, setting by setting: under setting [1], 3.83; under setting [2], 4.75.

As to `Clc1ccc(C2CCC(c3ccccc3Cl)=N2)c(Cl)c1` (stereo not shown) [Example 46], the chromatographic logP amounted to 4.66 under setting [1] and 5.2 under setting [2]. For `Cc1ccc(C2CCC(c3ccccc3Br)=N2)c(Cl)c1` (stereo not shown) [Example 47], in that order: 3.98 and 4.88. For `Clc1cccc(C2=NC(c3ccccc3)CC2)c1` (stereo not shown) [Example 48] the same measures were 1.73 and 3.97.

With `Fc1ccc(C2CCC(c3ccccc3Cl)=N2)cc1F` (stereo not shown) [Example 49], the chromatographic logP is, setting by setting: under setting [1], 2.67; under setting [2], 3.86. `Cc1ccc(C2CCC(c3ccccc3F)=N2)c(Cl)c1` (stereo not shown) [Example 50]: the chromatographic logP was determined as 2.39 under setting [1] and 4.74 under setting [2]. In the case of `Fc1ccc(C2CCC(c3cc(Cl)ccc3Cl)=N2)cc1` (stereo not shown) [Example 51], the chromatographic logP runs as follows: under setting [1], 3.79; under setting [2], 4.36. For `CCOc1cc(C(C)(C)C)ccc1C1CCC(c2ccccc2Cl)=N1` (stereo not shown) [Example 52], in that order: 3.01 and 5.78. For `FC(F)(F)Oc1ccc(C2CCC(c3ccccc3Br)=N2)cc1` (stereo not shown) [Example 53], the logP (acidic range, pH 2.3; 0.1% aqueous phosphoric acid/acetonitrile gradient; 43° C.; values marked a)) was 3.63^a).

As for `Cc1ccc(C2CCC(c3ccccc3Cl)=N2)cc1Cl` (stereo not shown) [Example 54], the chromatographic logP reads like this: under setting [1], 2.98; under setting [2], 4.67. For `CSc1ccc(C2CCC(c3ccccc3Cl)=N2)cc1` (stereo not shown) [Example 55] the same measures were 2.19 and 4. For `Fc1ccc(C2CCC(c3ccccc3Br)=N2)cc1F` (stereo not shown) [Example 56] the same measures were 3.01 and 3.89. For `CCOc1cc(C(C)(C)C)ccc1C1CCC(c2ccccc2Br)=N1` (stereo not shown) [Example 57], the chromatographic logP is, setting by setting: under setting [1], 3.31; under setting [2], 5.8.
